Measurements published in publication PMC4999848 (Toxins, 2016).
Several values for one entry are separate records, joined by “and”; a condition that tells them apart may be missing. Identical values can stand only once.

What was measured:
colonic explant = experiment: Deacetylation of 3/15ADON by human colonic explants; assay type: in vitro ADME; conditions: for Disappearance of 3/15ADON, specific activity: colonic explant, 37 °C, substrate 100 μM; for % of deacetylation: colonic explants, 6 h incubation, 100 μM; for Contribution to total deacetylation activity: Colon: percentage of sum of specific activities (Figure 8)
Description: (§1) Human tissue samples were obtained from patients undergoing surgery at the Hospital Nord of Marseille, unit of general and gastrointestinal surgery according to a collaborative “clinical transfer” project. The procedures were approved by the French ethic committee (CODECOH n° DC-2011-1319). Patients were from both genders (six men, three women), 31–74 years of age, all of European origin. All patients agree to use their tissues for research purposes. Samples were taken from macroscopically unaffected area as identified by the surgeon for intestinal samples or the pathologist for liver resections. Diagnoses leading to surgery were carcinoma for intestine or liver. After resection, the specimens were placed in ice-cold non-sterile Krebs solution implemented and transferred to the school of medicine on the same campus within 5 min, composition of the Krebs solution being previously described. The tissues were rinsed several times and maintained in oxygenated Krebs during 1 h for recovery before final dissection. Intestinal and hepatic resections were extensively washed and maintained in ice-cold culture media containing 1% streptomycin/penicillin solution and 50 μg/mL gentamycin. Tissues were cleaned from vascular vessels and conjunctive tissue using forceps under binocular microscope. In case of intestinal resection, muscularis and plexus were removed and only epithelial layer was kept. Intestinal and hepatic explants (wet weight of 20–30 mg) were then isolated from the cleaned resections using surgical punch (diameter of […]). […] Finally, the explants were washed 3 times with PBS^++ and transferred into 6-well plates before being used for deacetylation assay.
(§2) Stock solutions of DON, 3ADON and 15ADON at 2 mg/mL were prepared in absolute ethanol and stored at −20 °C. For deacetylation assay, 3- or 15ADON were incubated with cells, explants, bacteria or digestive enzymes after being diluted in PBS^++ at a final concentration of 100 μM. PBS^++ solution containing only ethanol (at 1.5% final concentration) or DON (at 100 μM) were used in parallel as negative and positive control, respectively. For cells and explants, deacetylation assay take place in 6-well plates, wells being filled with 2 mL of PBS^++ containing either ethanol, DON, 3- or 15ADON. For fecal bacteria and digestive enzyme assay, deacetylation assay was conducted in 2 mL Eppendorf tubes filled with 1.5 mL of PBS^++ containing either ethanol, DON, 3- or 15ADON. In vitro intestinal digestion by luminal enzymes was performed using porcine enzymes from Sigma-Aldrich and physiological conditions. Briefly, 3- or 15ADON were incubated with pepsin (at 1.6 mg/mL corresponding to 900 U/mL), trypsin (at 0.35 mg/mL corresponding to 6000 U/mL), pancreatic lipase (at 0.75 mg/mL corresponding to 18 U/mL) or pancreatin (at 1.23 mg/mL, lipase activity >10 U/mL, protease activity >100 U/mL, amylase activity >100 U/mL). Except for pepsin for which the digestion was conducted in HCl solution at 10 mM (pH 2.3), in vitro digestion was performed in PBS^++ (pH 7.4). Finally, deacetylation assay was also performed with commercial pooled S9 fractions from human liver, small intestine and kidneys as well as with pure recombinant human CES1 and CES2. S9 fractions and CES1/2 were used at 0.1 mg/mL and 5 μg/mL (corresponding to CES activity >20 U/mL), respectively. In all cases, aliquots of the reaction solution were collected immediately (i.e., “time zero” sample) or after the indicated time period at 37 °C and analyzed by HPLC. […] In all cases, the experiments were conducted in triplicate (n = 3).

[1] = Deacetylation of 3/15ADON by small intestine S9 fraction; assay type: in vitro ADME, human
Method: as §2
Deacetylation was monitoring both in term of disappearance of 3- or 15ADON and formation of DON. Measurement of DON, 3ADON and 15ADON concentrations was performed by reversed-phase HPLC using Waters Alliance System equipped with a Waters 2690 XE separation module and a Waters 996 photodiode array detector (Waters, Saint Quentin Falavier, France). The separation was achieved by mean of a LiChroCart column (125 mm × 4 mm) packed with 5 μm RP-18 Purospher gel (Merck, Darmstadt, Germany) and equipped with a LiChroCart precolumn (4 mm × 4 mm) packed with the same material (Merck). The precolumn and column were placed in room temperature. The elution procedure was carried out at 0.7 mL·min^−1 by a methanol–water solvent, using the following conditions: 40% methanol during 2 min followed by an increase in methanol to 50% at 2.1 min. The detection wavelength was set at 237 nm allowing the best signal/baseline ratio for simultaneous detection of the three DON forms in the incubation mediums. Under these conditions, DON and 3/15ADON were clearly separated, the retention time being around 2.7 min and 5.7 min, for DON and 3/15ADON, respectively (Figure 9). Quantification was based on calibration with the corresponding standard using Millinium Software (Waters, Saint Quentin Falavier, France).

human fecal bacteria = conditions: 48 h incubation; cited from earlier work
small intestinal explant = experiment: Deacetylation of 3/15ADON by human small intestinal explants; assay type: in vitro ADME; conditions: for Contribution to total deacetylation activity: Small intestine: percentage of sum of specific activities (Figure 8); for Disappearance of 3/15ADON, specific activity: small intestinal explant, 37 °C, substrate 100 μM; for % of deacetylation: small intestinal explants, 6 h incubation, 100 μM
Description: as §1, §2

[2] = set-up: method as in PMID 26343882; conditions: chickens, after oral or i.v treatment; cited from earlier work
[3] = S9 Intestine + Benzil 100 μM (Table 1)
[4] = S9 small intestine 0.1 mg/mL, 37 °C, substrate 100 μM (Table 3)

| Structure (SMILES) | Disappearance of 3/15ADON, specific activity (colonic explant) | % of deacetylation (colonic explant) | Contribution to total deacetylation activity: Colon (colonic explant) [%] | Disappearance of 3/15ADON, specific activity [1, 3] [pmol/min/mg] | Disappearance of 3/15ADON, specific activity ([1]; S9 Intestine, without benzil (Table 1)) [pmol/min/mg] | Disappearance of 3/15ADON, specific activity [1, 4] | % deacetylation (human fecal bacteria) | Contribution to total deacetylation activity: Small intestine (small intestinal explant) [%] | Disappearance of 3/15ADON, specific activity (small intestinal explant) | % of deacetylation (small intestinal explant) | Acetylated form in blood [2] |
| --- | --- | --- | --- | --- | --- | --- | --- | --- | --- | --- | --- |
| CC(=O)O[C@@H]1C[C@]2(C)[C@@]3(CO)[C@H](O)C(=O)C(C)=C[C@H]3O[C@H]1[C@@]21CO1 [3ADON, 3-acetyldeoxynivalenol] | 22 ± 13 pmol/min/mg | 4.2% ± 3.1% | 1.7 | 875 ± 83 | 1166 ± 110 | 1250 pmol/min/mg and 1250 ± 79 pmol/min/mg | 78% ± 30% | 26 | 338 pmol/min/mg and 338 ± 69 pmol/min/mg | 67.3% ± 13.8% |  |
| CC(=O)OC[C@]12[C@H](O)C(=O)C(C)=C[C@H]1O[C@@H]1[C@H](O)C[C@@]2(C)[C@]12CO2 [15ADON, 15-acetyldeoxynivalenol] | 4.5 pmol/min/mg and 4.5 ± 5.6 pmol/min/mg | 0.2% ± 1.2% | 0.7 | 171 ± 79 |  | 166 pmol/min/mg and 166 ± 20 pmol/min/mg |  | 13 | 85 pmol/min/mg and 85 ± 65 pmol/min/mg | 17.2% ± 13.4% | traces of 15ADON are present in the blood |
